# Experimental data reported in US20240208997A1, “CYCLIC BENZIMIDAZOLE DERIVATIVES AS CGAS INHIBITORS” (Boehringer Ingelheim International GmbH, priority 2022, published 2024).
# Test system: IFN induction in dsDNA-stimulated human whole blood
# Assay: Human whole blood assay (hWB IC50), dsDNA stimulated, IFNα2α production
# Type: cell-based
# Conditions: Table 1
# Experimental: 6.3 Method: Human Whole Blood Assay (Human WB IC50)
# For the detection of cellular cGAS activity human whole blood was stimulated by transfection with double stranded DNA. Pathway activity was monitored by measuring the IFNα2α production.
# Compounds were delivered as 10 mM DMSO solution and serially diluted and transferred to the 96-well cell culture plate (Corning #3595), prefilled with 20 μl OptiMEM (Gibco, #11058-021) in each well, using an Echo acoustic dispenser. Typically, 8 concentrations were used with the highest concentration at 10 μM in the final assay volume followed by ^˜1:5 dilution steps. DMSO concentration was set to 0.1% in the final assay volume. The 96-well assay plate contained 10 test compounds, and DMSO in control wells.
# Collection of human whole blood from 3 or more healthy donors (male or female, no medication for 7 days except contraceptive and thyroxine) as Na-Citrate blood (e.g. 3.8% in Monovettes from Sarstedt) was conducted in parallel. Whole blood was kept at room temperature for a maximum of 3 hours after collection until use in the assay. 160 μl of the whole blood samples was transferred to each well of the 96-well assay plates filled with compound/OptiMEM. All assay plates were prepared as duplicates with blood from different donors. Blood plates were kept at room temperature for 60 minutes and continuous shaking with 450 rpm, covered with the lid, but not sealed.
# 20 μl OptiMEM and 9.6:1 Fugene was added to all low control wells.
# After covering assay plates with aera seals and the lid, blood plates were kept at room temperature for 30 minutes and continuous shaking with 450 rpm, followed by an overnight incubation of 22 h at 37° C. in the incubator, without shaking.
# For the detection of IFNα-2α in human plasma, the biotinylated capture antibody (Antibody set IFNA2, Meso Scale Diagnostics #B21VH-3, including coating and capture antibody) was diluted 1:17.5 in Diluent 100 (Meso Scale Diagnostics #R50AA-4), according to the manufacturer's directions. U-Plex MSD GOLD 96-well Small Spot Strepavidin SECTOR Plates (Meso Scale Diagnostics #L45SA-5) were coated with 25 μl diluted capture antibody. Coated plates were incubated for 60 min at room temperature under continuous shaking at 700 rpm. MSD IFNα-2α plates were washed three times with 150 μl wash buffer (1× HBSS, 0.05% Tween).
# After blocking the plates with 100 μl block solution/well (1× HBSS with 0.2% Tween, 2% BSA) for 60 min at room temperature and continuous shaking at 700 rpm, plates were emptied as dry as possible by dumping just before continuing with the human plasma.
# Whole Blood assay plates were centrifuged at 1600 rpm for 10 minutes. 25 μl of supernatant was transferred with a pipetting robot from each whole blood plate to the corresponding IFNα-2α plate. Plates were sealed with microplate seals and kept at room temperature again under continuous shaking at 700 rpm for two hours.
# Next MSD IFNα-2α plates were washed three times with 150 μl wash buffer (1× HBSS, 0.05% Tween), before adding 25 μl MSD SULFO-TAG IFNα-2α Antibody solution (1:100 diluted in Diluent 3 (Meso Scale Diagnostics #R50AP-2) to each well of the plates.
# Afterwards plates were sealed with microplate seals and kept at room temperature again under continuous shaking at 700 rpm for two hours. Finally, MSD IFNα-2α plates were washed three times with 150 μl wash buffer (1× HBSS, 0.05% Tween). 150 μl 2× Read buffer was added to each well and plates were immediately measured with the MSD Sector S600 Reader using the vendor barcode.
# Data Evaluation and Calculation:
# For data evaluation and calculation, % control calculation of each well was based on the mean of high (DNA stimulated control) and mean of low (unstimulated control) controls by using the following formula:
# [counts(sample)−counts(low))/(counts(high)−counts(low))]*100
# The IC50-values were calculated using the standard 4 parameter logistic regression formula. […]
row,SMILES,IC50 [nM]
1,C[C@H]1CN2CC[C@@H]1n1c(nc3ccccc31)O[C@H]1C[C@@H](C(=O)O)N(C1)c1nc(nc3c1oc1cc(F)ccc13)C(F)(F)CCCCCC2=O [Example 1.14],4
2,C[C@H]1CN2CC[C@@H]1n1c(nc3ccccc31)O[C@H]1C[C@@H](C(=O)O)N(C1)c1nc(nc3c1oc1ccccc13)CCCCCCC2=O (racemic) [Example 1.24],86
